Laboratory results reported in the supplement of paper PMC11208160.

test: recombinant barcode read abundance after kanamycin selection (control-corrected) (log10(CPM+1)); higher = more efficient recombination; sequences stand for … in AGTGCAGAGAAAATCGGCCAGTTTTCTCTGCCTGCAGTCCGCATGCCGT…AGATTTATGCAGCGGACTGCCTTTCTCCCAAAGTGATAAACCGGACAGTATCATGGACCGGTTTTCCCGGTAATCCGTATTTGCAAGGTTGGTTTCACT; site = the 11-nt target
Outline: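 This pooled E. coli screen matched targets with IS621 bridge RNA target-binding loops. Plating was done in duplicate on chloramphenicol/ampicillin LB agar as a control and on chloramphenicol/ampicillin/kanamycin plus 0.1 mM IPTG. Recombination efficiency reflects barcode counts at recombinant junctions as counts per million, averaged and control-corrected. The figures are log10(CPM+1).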
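Further: IS621 recombinase and bridge RNA in Escherichia coli cells.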

| Sequence | recombinant barcode read abundance (log10) |
| --- | --- |
| GCTGGGCCTTGGGTTCTAACCTGTTGCGA (site GCTGGGCCTTC) | 2.17 |
| GCTGTATCTTGGGTTCTAACCTGTTGCCT (site ACTGTATCTAG) | 0.288 |
| GCTGTATCTTGGGTTCTAACCTGTTGCCT (site CCTGTATCTAG) | 0.163 |
| GCTGTATCTTGGGTTCTAACCTGTTGCCT (site GCTGTATCTAG) | 0.612 |
| GCTGTATCTTGGGTTCTAACCTGTTGCCT (site TCTGTATCTAG) | 0.0648 |
| GCTTCTTCTTGGGTTCTAACCTGTTGCCT (site GATTCTTCTAG) | 0.398 |
| GCTTCTTCTTGGGTTCTAACCTGTTGCCT (site GCTTCTTCTAG) | 0.0876 |
| GCTTCTTCTTGGGTTCTAACCTGTTGCCT (site GGTTCTTCTAG) | 0.0632 |
| GCTTCTTCTTGGGTTCTAACCTGTTGCCT (site GTTTCTTCTAG) | 0.0974 |
| GCTTGAGCTTGGGTTCTAACCTGTTGCCG (site CCTTGAGCTCA) | 0.0954 |
| GCTTGAGCTTGGGTTCTAACCTGTTGCCG (site GCTTGAGCTCG) | 0.344 |
| GCTTGAGCTTGGGTTCTAACCTGTTGCCT (site GCATGAGCTAG) | 0.421 |
| GCTTGAGCTTGGGTTCTAACCTGTTGCCT (site GCCTGAGCTAG) | 0.158 |
| GCTTGAGCTTGGGTTCTAACCTGTTGCCT (site GCGTGAGCTAG) | 0.139 |
| GCTTGAGCTTGGGTTCTAACCTGTTGCCT (site GCTTGAGCTAG) | 0.589 |
| GCTTGGACTTGGGTTCTAACCTGTTGCCT (site GCTTGGACTAG) | 0.467 |
| GCTTGGACTTGGGTTCTAACCTGTTGCCT (site GCTTTGACTAG) | 0.0492 |
| GCTTGTTCTTGGGTTCTAACCTGTTGCCT (site ACTTGTTCTAG) | 0.0443 |
| GCTTGTTCTTGGGTTCTAACCTGTTGCCT (site CCTTGTTCTAG) | 0.501 |
| GCTTGTTCTTGGGTTCTAACCTGTTGCCT (site GCTTGTTCTAG) | 0.233 |
| GCTTGTTCTTGGGTTCTAACCTGTTGCCT (site TCTTGTTCTAG) | 0.11 |
| GCTTTACCTTGGGTTCTAACCTGTTGCCT (site ACTTTACCTAG) | 0.0836 |

| Sequence | recombinant barcode read abundance (log10) |
| --- | --- |
| GCTTTACCTTGGGTTCTAACCTGTTGCCT (site CCTTTACCTAG) | 0.019 |
| GCTTTACCTTGGGTTCTAACCTGTTGCCT (site GCTTTACCTAG) | 0.456 |
| GCTTTACCTTGGGTTCTAACCTGTTGCCT (site TCTTTACCTAG) | 0.0534 |
| GCTTTGCCTTGGGTTCTAACCTGTTGCCT (site ACTTTCCCTAG) | 0.0475 |
| GCTTTGCCTTGGGTTCTAACCTGTTGCCT (site GCTTTGCCTAG) | 0.409 |
| GGAACGTCTTGGGTTCTAACCTGTTGCTT (site GGAACCTCTAA) | 0.0353 |
| GGAACGTCTTGGGTTCTAACCTGTTGCTT (site GGAACGTCTAA) | 1.06 |
| GGAACTACTTGGGTTCTAACCTGTTGCAC (site GGAACTACTGT) | 0.838 |
| GGAACTACTTGGGTTCTAACCTGTTGCAC (site TTGCTAGCTCC) | 0.114 |
| GGAAGCCCTTGGGTTCTAACCTGTTGCTA (site AACTAAGCTAG) | 0.0242 |
| GGAAGCCCTTGGGTTCTAACCTGTTGCTA (site GGAAGCCCTTA) | 0.694 |
| GGAAGTTCTTGGGTTCTAACCTGTTGCCT (site GAAAGTTCTAG) | 0.0496 |
| GGAAGTTCTTGGGTTCTAACCTGTTGCCT (site GCAAGTTCTAG) | 0.0862 |
| GGAAGTTCTTGGGTTCTAACCTGTTGCCT (site GGAAGTTCTAG) | 0.732 |
| GGAAGTTCTTGGGTTCTAACCTGTTGCCT (site GTAAGTTCTAG) | 0.754 |
| GGAATACCTTGGGTTCTAACCTGTTGCCT (site GGAATACCTAG) | 1.36 |
| GGAATACCTTGGGTTCTAACCTGTTGCCT (site GGAATCCCTAG) | 0.157 |
| GGAATACCTTGGGTTCTAACCTGTTGCCT (site GGAATGCCTAG) | 0.0994 |
| GGAATACCTTGGGTTCTAACCTGTTGCCT (site GGAATTCCTAG) | 0.0368 |
| GGAATGCCTTGGGTTCTAACCTGTTGCCT (site GGAATACCTAG) | 0.79 |
| GGAATGCCTTGGGTTCTAACCTGTTGCCT (site GGAATCCCTAG) | 0.0574 |
| GGAATGCCTTGGGTTCTAACCTGTTGCCT (site GGAATGCCTAG) | 0.975 |

| Sequence | recombinant barcode read abundance (log10) |
| --- | --- |
| GGAATGCCTTGGGTTCTAACCTGTTGCCT (site GGAATTCCTAG) | 0.0966 |
| GGAATGTCTTGGGTTCTAACCTGTTGCCT (site GAAATGTCTAG) | 0.344 |
| GGAATGTCTTGGGTTCTAACCTGTTGCCT (site GCAATGTCTAG) | 0.0847 |
| GGAATGTCTTGGGTTCTAACCTGTTGCCT (site GGAATGTCTAG) | 2.09 |
| GGAATGTCTTGGGTTCTAACCTGTTGCCT (site GTAATGTCTAG) | 0.0368 |
| GGAATTCCTTGGGTTCTAACCTGTTGCCT (site GGAATACCTAG) | 0.129 |
| GGAATTCCTTGGGTTCTAACCTGTTGCCT (site GGAATCCCTAG) | 0 |
| GGAATTCCTTGGGTTCTAACCTGTTGCCT (site GGAATGCCTAG) | 0.0669 |
| GGAATTCCTTGGGTTCTAACCTGTTGCCT (site GGAATTCCTAG) | 0.0376 |
| GGACAATCTTGGGTTCTAACCTGTTGCCT (site GGACAATCTAG) | 1.53 |
| GGACAATCTTGGGTTCTAACCTGTTGCCT (site GGACCATCTAG) | 0.174 |
| GGACAATCTTGGGTTCTAACCTGTTGCCT (site GGACGATCTAG) | 0.376 |
| GGACAATCTTGGGTTCTAACCTGTTGCCT (site GGACTATCTAG) | 0.0608 |
| GGACATGCTTGGGTTCTAACCTGTTGCGT (site CGACATACTAC) | 0.219 |
| GGACATGCTTGGGTTCTAACCTGTTGCGT (site GGACATGCTAC) | 2.7 |
| GGACCGCCTTGGGTTCTAACCTGTTGCCT (site CGATCGCCTAG) | 0.129 |
| GGACCGCCTTGGGTTCTAACCTGTTGCCT (site GGACCGCCTAG) | 0.626 |
| GGACGAGCTTGGGTTCTAACCTGTTGCTG (site ATCTATACTAG) | 0.0905 |
| GGACGAGCTTGGGTTCTAACCTGTTGCTG (site GGACGAGCTCA) | 2.46 |
| GGACGGACTTGGGTTCTAACCTGTTGCCA (site GGACGGACTTG) | 1.68 |
| GGACGGACTTGGGTTCTAACCTGTTGCCA (site GGTCGGACTTG) | 0.417 |
| GGACTATCTTGGGTTCTAACCTGTTGCCT (site GGACAATCTAG) | 0.104 |

| Sequence | recombinant barcode read abundance (log10) |
| --- | --- |
| GGACTATCTTGGGTTCTAACCTGTTGCCT (site GGACCATCTAG) | 0.297 |
| GGACTATCTTGGGTTCTAACCTGTTGCCT (site GGACGATCTAG) | 0.011 |
| GGACTATCTTGGGTTCTAACCTGTTGCCT (site GGACTATCTAG) | 1.18 |
| GGACTCACTTGGGTTCTAACCTGTTGCCT (site GGACTCACTAG) | 1.77 |
| GGACTCACTTGGGTTCTAACCTGTTGCCT (site GGATTCTCTAG) | 0.15 |
| GGAGAACCTTGGGTTCTAACCTGTTGCCT (site AGAGAACCTAG) | 1.85 |
| GGAGAACCTTGGGTTCTAACCTGTTGCCT (site CGAGAACCTAG) | 0.492 |
| GGAGAACCTTGGGTTCTAACCTGTTGCCT (site GGAGAACCTAG) | 2.48 |
| GGAGAACCTTGGGTTCTAACCTGTTGCCT (site TGAGAACCTAG) | 1.56 |
| GGAGAGGCTTGGGTTCTAACCTGTTGCCT (site GGAGAAGCTAG) | 0.893 |
| GGAGAGGCTTGGGTTCTAACCTGTTGCCT (site GGAGACGCTAG) | 0.143 |
| GGAGAGGCTTGGGTTCTAACCTGTTGCCT (site GGAGAGGCTAG) | 1.54 |
| GGAGAGGCTTGGGTTCTAACCTGTTGCCT (site GGAGATGCTAG) | 0.0967 |
| GGAGATGCTTGGGTTCTAACCTGTTGCCT (site GGAGAAGCTAG) | 0.783 |
| GGAGATGCTTGGGTTCTAACCTGTTGCCT (site GGAGACGCTAG) | 0.291 |
| GGAGATGCTTGGGTTCTAACCTGTTGCCT (site GGAGAGGCTAG) | 0.226 |
| GGAGATGCTTGGGTTCTAACCTGTTGCCT (site GGAGATGCTAG) | 1.74 |
| GGAGCAGCTTGGGTTCTAACCTGTTGCCT (site GGAGCACCTAG) | 0.223 |
| GGAGCAGCTTGGGTTCTAACCTGTTGCCT (site GGAGCAGCTAG) | 1.16 |
| GGAGCCTCTTGGGTTCTAACCTGTTGCTC (site GGAGCCTCTGA) | 1.7 |
